From patent publication US12630498B2 (Genzyme Corporation, priority 2019, dated 2026)

Molecular target: T1, human Cystic Fibrosis Transmembrane Conductance Regulator (CFTR) harboring the ΔF508 mutation (Homo sapiens, UniProt P13569, DEL508-508)
T1 construct: expressed in transfected cells; host or cells: H441 carcinoma line (G418-selected)
Assay: H441 cell ΔF508-CFTR-HRP cell surface assay (Emax and EC50)
Assay type: cell-based
Conditions: for Emax: NCI-H441, NA = Not active
Excerpt: Example 315: H441 Cell Emax and EC50 Two cell lines were used, the H441 carcinoma line and the CFHBE41o- (41o-) human bronchial epithelial line. Both cell lines expressed human Cystic Fibrosis Transmembrane Conductance Regulator (CFTR) harboring the ΔF508 mutation and with an in-frame fusion in CFTR extracellular loop 4 of Horse Radish Peroxidase (HRP) under control of the CMV promoter. In the presence of the HRP tag, ΔF508-CFTR transported to the cell surface was detectable upon addition of an HRP substrate (Luminata Forte). Both cell types were cultivated at 37° C. with CO2. […] For both cell types, the medium was changed every other day unless the culture was at low % confluence. Cells were used for the assays at 75% confluence. To a polypropylene (PP) 384-well plate, 15 pls DMSO was added to all wells in columns 1-22 and 24 (low Control). 15 μls of 260 μM VX809 (Lumacaftor), Selleckchem […], was added to column 23 wells (high Control). 15 pls of 10 mM test compound or VX809 (control) were added to wells of row A. Serial dilutions of Row A compound were performed 2×15 pls in rows A through 0 (15-point). A PP, 384-well plate containing the appropriate cell culture medium was prepared for each assay plate with 100 pls per well. For the doxycycline-induced 41o-cells, doxycycline for both the assay plate and the medium dilution plate was added at 0.0005 mg/ml to the medium. Both cell lines were plated for the assay at 30 pls per 384-well at 3.4×10 e^5 cells per ml ( 10K cells/well). H441 cells were plated on opaque, white, Corning plate 3704. 41o-cells were plated on collagen-coated opaque, white, Corning plate 356665. For 41o-cells, doxycycline was added to the medium. Using FX (Beckman) protocol, 10 pls diluted compound or medium was added per well to the Assay Plate as: 2 pls DMSO Dilution plate well was diluted in 100 pls of the Medium Dilution Plate well, mixed, and 10 pls was transferred to the Assay Plate. The final assay dilution series was 24.5, 12.3, 6.1, 3.1, 1.5, 0.8, 0.4, 0.2, 0.1, 0.05, 0.02, 0.01, 0.006, 0.003, 0.001 and 0 μM. The 41o-assay plates were incubated at 37° C. w/CO2, the H441 assay plates were incubated at 27° C. w/CO2, each overnight for two nights. After being brought to room temperature, the assay plate liquid was removed. 30 uls of Luminata Forte (Millipore ELLUF0100) was added per well and incubated at room temperature for 10 min. The plates were then read on a Topcount, protocol LumiMatti (CPS, luminescence). The data was analyzed for % of maximum, maximum VX809 signal, and EC50 using Pearl and SPEED tools.

T1 sequence (P13569 with tags, fused parts or gaps DEL508-508): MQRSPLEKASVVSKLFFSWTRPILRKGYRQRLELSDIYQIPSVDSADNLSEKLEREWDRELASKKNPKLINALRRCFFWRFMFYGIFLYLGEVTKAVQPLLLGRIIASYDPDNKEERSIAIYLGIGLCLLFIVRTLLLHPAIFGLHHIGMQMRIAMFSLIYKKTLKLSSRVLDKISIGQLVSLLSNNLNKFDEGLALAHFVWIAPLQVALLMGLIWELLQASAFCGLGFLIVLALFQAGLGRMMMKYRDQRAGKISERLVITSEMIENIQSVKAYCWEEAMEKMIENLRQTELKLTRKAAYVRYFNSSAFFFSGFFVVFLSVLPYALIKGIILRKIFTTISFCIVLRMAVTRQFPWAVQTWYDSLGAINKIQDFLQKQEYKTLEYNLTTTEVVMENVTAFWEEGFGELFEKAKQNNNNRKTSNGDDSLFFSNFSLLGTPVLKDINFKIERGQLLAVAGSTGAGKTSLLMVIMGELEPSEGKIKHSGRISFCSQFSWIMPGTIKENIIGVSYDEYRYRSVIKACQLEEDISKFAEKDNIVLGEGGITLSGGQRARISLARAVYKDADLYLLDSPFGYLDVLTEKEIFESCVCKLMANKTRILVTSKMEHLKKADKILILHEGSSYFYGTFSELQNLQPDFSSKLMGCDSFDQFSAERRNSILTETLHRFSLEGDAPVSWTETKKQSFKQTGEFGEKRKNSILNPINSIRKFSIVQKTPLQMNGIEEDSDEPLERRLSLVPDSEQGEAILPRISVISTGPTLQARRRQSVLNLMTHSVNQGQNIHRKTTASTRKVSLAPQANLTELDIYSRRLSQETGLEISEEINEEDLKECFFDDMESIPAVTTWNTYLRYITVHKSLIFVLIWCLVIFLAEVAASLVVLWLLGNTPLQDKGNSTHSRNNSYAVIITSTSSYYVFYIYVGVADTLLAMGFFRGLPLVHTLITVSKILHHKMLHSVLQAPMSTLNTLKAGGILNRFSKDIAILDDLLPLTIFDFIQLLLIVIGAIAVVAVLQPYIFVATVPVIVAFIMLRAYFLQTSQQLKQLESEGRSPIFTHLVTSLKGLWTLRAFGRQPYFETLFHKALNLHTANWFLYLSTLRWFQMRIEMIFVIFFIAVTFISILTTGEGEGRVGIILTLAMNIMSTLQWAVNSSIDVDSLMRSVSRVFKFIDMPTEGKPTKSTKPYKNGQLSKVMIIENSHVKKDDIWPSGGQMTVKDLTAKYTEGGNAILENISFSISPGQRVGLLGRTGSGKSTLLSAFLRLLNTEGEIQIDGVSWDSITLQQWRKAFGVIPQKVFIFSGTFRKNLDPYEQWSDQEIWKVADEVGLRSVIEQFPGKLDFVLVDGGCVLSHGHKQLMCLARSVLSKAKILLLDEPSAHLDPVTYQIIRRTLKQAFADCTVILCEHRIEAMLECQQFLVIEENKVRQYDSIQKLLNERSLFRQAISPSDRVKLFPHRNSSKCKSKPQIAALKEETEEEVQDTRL

Row | SMILES | Emax [%] | EC50 [µM]
1 | CC(C)(S[C@@H]1C[C@@H]2CC[C@H]1C2)[C@H](NC(=O)c1ccc2ccccc2c1OCc1ccc(S(C)(=O)=O)cc1)C(=O)O [Example 176, (R)-3-(((1S,2R,4R)-bicyclo[2.2.1]heptan-2-yl)thio)-3-methyl-2-(1-((4-(methylsulfonyl)benzyl)oxy)-2-naphthamido)butanoic Acid] | 38.4 | 
2 | CC1(C(NC(=O)c2ccc3ccccc3c2OCc2ccc(S(C)(=O)=O)cc2)C(=O)O)CCCCC1 (stereo not drawn) [Example 44, 2-(1-methylcyclohexyl)-2-(1-((4-(methylsulfonyl)benzyl)oxy)-2-naphthamido)acetic Acid] | 19.9 | 5.1
3 | N#Cc1ccc(COc2c(C(=O)N[C@@H](Cc3ccccc3)C(=O)O)ccc3ccccc23)cc1 [Example 125, (1-((4-cyanobenzyl)oxy)-2-naphthoyl)-L-phenylalanine] | 31.5 | 20.3
4 | CC(C)(C)[C@H](NC(=O)c1ccc2ccccc2c1OCc1ccc(S(C)(=O)=O)cc1)C(=O)O [Example 66, (S)-3,3-dimethyl-2-(1-((4-(methylsulfonyl)benzyl)oxy)-2-naphthamido)butanoic Acid] | 12.8 | 2.1
5 | O=C(N[C@@H](Cc1ccc(C(F)(F)F)cc1)C(=O)O)c1ccc2ccccc2c1OCC1CCCCC1 [Example 200, (S)-2-(1-(cyclohexylmethoxy)-2-naphthamido)-3-(4-(trifluoromethyl)phenyl)propanoic Acid] | 65.4 | 20.5
6 | CCC(C)(C)[C@H](NC(=O)c1ccc2cc(OC)ccc2c1OCc1ccc(C(F)(F)F)cc1)C(=O)O [Example 83, (S)-2-(6-methoxy-1-((4-(trifluoromethyl)benzyl)oxy)-2-naphthamido)-3,3-dimethylpentanoic Acid] | 58.9 | 1.4
7 | Nc1ccc2c(OCc3ccc(C(F)(F)F)cc3)c(C(=O)N[C@H](C(=O)O)C3CCCC3)ccc2c1 [Example 187, (S)-2-(6-amino-1-((4-(trifluoromethyl)benzyl)oxy)-2-naphthamido)-2-cyclopentylacetic Acid] | 70.8 | 11.4
8 | CC(C)(C)C#CCOc1c(C(=O)N[C@H](C(=O)O)C(C)(C)C)ccc2cc(F)ccc12 [Example 266, (2S)-2-[[1-(4,4-dimethylpent-2-ynoxy)-6-fluoro-naphthalene-2-carbonyl]amino]-3,3-dimethyl-butanoic Acid] | 149 | 5.4
9 | CC(C)(c1ccccc1)[C@H](NC(=O)c1ccc2cc(F)ccc2c1OCC1CCC(F)(F)CC1)C(=O)O [Example 7, (S)-2-(1-((4,4-difluorocyclohexyl)methoxy)-6-fluoro-2-naphthamido)-3-methyl-3-phenylbutanoic Acid] | 51.9 | 2.4
10 | O=C(N[C@@H](Cc1ccc(C(F)(F)F)cc1)C(=O)O)c1ccc2ccccc2c1OCc1nc2ccccc2s1 [Example 213, (S)-2-(1-(benzo[d]thiazol-2-ylmethoxy)-2-naphthamido)-3-(4-(trifluoromethyl)phenyl)propanoic Acid] | 87.2 | 13.1
11 | CC(C)(C)C#CCOc1c(C(=O)N[C@H](C(=O)O)C(C)(C)C)ccc2ccccc12 [Example 267, (2S)-2-[[1-(4,4-dimethylpent-2-ynoxy)naphthalene-2-carbonyl]amino]-3,3-dimethyl-butanoic Acid] | 288 | 3.4
12 | Cc1ccc2ccc(C(=O)N[C@H](C(=O)O)C3(C)CC3)c(OCc3ccc(C(F)(F)F)cc3)c2c1 [Example 229, (2S)-2-(1-methylcyclopropyl)-2-[[7-methyl-1-[[4-(trifluoromethyl)phenyl]methoxy]naphthalene-2-carbonyl]amino]acetic Acid] | 177 | 1.8
13 | CC(C)(C)C[C@H](NC(=O)c1ccc2ccccc2c1OCc1ccc(S(C)(=O)=O)cc1)C(=O)O [Example 158, (S)-4,4-dimethyl-2-(1-((4-(methylsulfonyl)benzyl)oxy)-2-naphthamido)pentanoic Acid] | 13 | 
